Reference: ChEMBL document CHEMBL1154147, “Antityrosinase and antioxidant effects of ent-kaurane diterpenes from leaves of Broussonetia papyrifera” (J Nat Prod, 2008)

Assays:
Tyrosinase [1] = target: T1, Tyrosinase (Agaricus bisporus, UniProt O42713)
T1 sequence (O42713 whole entry): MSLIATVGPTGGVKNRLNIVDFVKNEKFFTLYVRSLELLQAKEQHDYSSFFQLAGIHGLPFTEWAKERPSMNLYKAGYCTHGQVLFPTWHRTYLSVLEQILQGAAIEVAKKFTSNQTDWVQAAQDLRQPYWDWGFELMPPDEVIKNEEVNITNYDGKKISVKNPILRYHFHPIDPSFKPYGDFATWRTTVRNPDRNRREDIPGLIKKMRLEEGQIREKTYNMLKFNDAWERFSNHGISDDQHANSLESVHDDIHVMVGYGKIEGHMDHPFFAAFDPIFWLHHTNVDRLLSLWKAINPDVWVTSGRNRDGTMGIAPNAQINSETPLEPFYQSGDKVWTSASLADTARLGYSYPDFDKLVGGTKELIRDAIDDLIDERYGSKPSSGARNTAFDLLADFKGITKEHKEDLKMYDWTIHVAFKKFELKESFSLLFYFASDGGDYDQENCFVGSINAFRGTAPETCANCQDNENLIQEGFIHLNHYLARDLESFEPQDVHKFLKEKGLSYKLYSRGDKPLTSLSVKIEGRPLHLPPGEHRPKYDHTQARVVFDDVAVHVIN
Description: (§1) Inhibition of mushroom tyrosinase after 30 mins

[2] = system: Radical scavenging activity
Description: Antioxidant activity assessed as DPPH free radical scavenging activity after 30 mins

Tyrosinase [3] = target: T1, Tyrosinase; remark: listed apart in the source
Description: (§2) Inhibition of mushroom tyrosinase after 90 mins

Tyrosinase [4] = target: T1, Tyrosinase; remark: listed apart in the source
Description: as §1

Tyrosinase [5] = target: T1, Tyrosinase; remark: listed apart in the source
Description: as §2

IC50 (Tyrosinase [1]) [µM]	IC50 (Tyrosinase [3]) [µM]	Compound	IC50 [2]	IC50 (Tyrosinase [4])	IC50 (Tyrosinase [5])
353	323	CC1(C)OC[C@]2(C[C@]34C[C@@H]2CC[C@H]3[C@]2(C)CCCC(C)(C)[C@H]2C(=O)[C@H]4O)O1 [BROUSSONETONE C]	Not Active	–	–
–	317	CC1(C)CCC[C@]2(C)[C@@H]1C(=O)[C@H](O)[C@@]13C[C@H](CC[C@@H]21)[C@@](O)(CO)C3 [BROUSSONETONE B]	Not Active	Not Active	–
–	–	COc1ccc(O)c(C(C)(C)C)c1.COc1ccc(O)cc1C(C)(C)C [BUTYLATED HYDROXYANISOLE]	79.2 µM	–	–
–	–	O=c1cc(-c2ccc(O)cc2)oc2c([C@@H]3O[C@H](CO)[C@@H](O)[C@H](O)[C@H]3O)c(O)cc(O)c12 [VITEXIN]	Not Active	Not Active	Not Active
336	322	CC1(C)CCC[C@]2(C)[C@@H]1C(=O)[C@@H](O)[C@@]13C[C@H](CC[C@@H]21)[C@@](O)(CO)C3 [BROUSSONETONE A]	Not Active	–	–

Compound	IC50 (Tyrosinase [1]) [µM]	IC50 (Tyrosinase [3]) [µM]	IC50 [2]	IC50 (Tyrosinase [4])	IC50 (Tyrosinase [5])
O=c1cc(-c2ccc(O)cc2)oc2cc(O)cc(O)c12 [APIGENIN]	305	305	Not Active	–	–
